# Tests used:
# Assay type in all cases: in vivo
# [1] = tested on: Maize (cultivar; Kuromochi); assay: Maize growth promotion by seed treatment; settings: for Percent (shoot weight, untreated control = 100) / Average weight of the shoots: 18th day after seeding; for Average weight of the shoots: control 3.8
# Procedure: Maize seeds (cultivar; Kuromochi) were treated with Compound 1 at dose rates of 0.005 grams to 0.5 gram per 100 kilogram seeds. The seeds were sown into a soil pot (one seed/pot) and then cultivated in a growth chamber at a temperature of 27° C. and a day length of 16 hours for 18 days. On the 18th day after seeding, the fresh shoot weight of each plant was examined for 3 replicates.
# mungbean = assay: Mungbean pouch assay: growth of primary root and shoot; settings: for Shoot Length / Root Length: 4 days after sowing in growth pouches; for Shoot Length: control 4.8; for Root Length: control 8.8
# Procedure: Seeds were placed in germination pouches consisting of germination paper as an insert in a gas-permeable 16×14 cm plastic pouch (CYG Pouch; Mega International, St. Paul, Minn.). In pouch solution evaluation, S-Benzylthiouracil compounds or their salts were dissolved in a small volume of DMSO and added to sterile water with a maximum of 0.5% v/v DMSO at final dilution. The S-Benzylthiouracil solution was subsequently pipetted into the growth pouch, followed by the addition of seeds of the crop being tested. The pouches were arranged in a randomized complete block design in growth racks and placed in 19-liter polycarbonate food storage containers (Rubbermaid Commercial Products, Winchester, Va.). The sealed containers were held in an upright growth cabinet maintained at 25 C with a 12 hour light: 12 hour dark photoperiod. For rice, plants were harvested at 6 d, while in mungbean and corn, the plants were harvested at 4 d post sowing. Measurements were performed on the primary root and shoot of each seedling. The growth of the primary root of mungbean was examined in the pouch assay system. The results of the testing, presented as percent change in root length across all the free S-Benzylthiouracil compounds is shown below. The following S-Benzylthiouracil compounds have benzyl substitutions as defined in Table 11 below.
# tomato = assay: Tomato petri plate assay; settings: Solanum lycopersicum, 144 h; 10 ppm; after 6 days of continuous exposure; read-out: Percent Increase (percent change in primary tomato root length)
# Procedure: For tomato, the plants were grown in disposable (150 mm) sterile plastic petri plates (Falcon, BD Biosciences, Franklin Lakes, N.J.). In the tomato assay, a single sheet of Whatman #1 filter paper was placed at the bottom of the plate, 15 tomato seeds were added, and 10 mL of treatment solution was added. At the end of 6 d, the 10 largest seedlings were selected for measurement from each plate. In each study, a minimum of 3 replicate plates were used. In tomato, several S-Benzylthiouracil compounds were tested to determine the effects on root growth.
# Wheat (cultivar; Apogee) = assay: Wheat yield enhancement by foliar spray treatment under high temperature stress; settings: for Average fresh weight of young ears: 36° C./32° C. for 7 days, 56th day after seeding, control 1.68
# Procedure: Wheat (cultivar; Apogee) was sown in soil pots (5 seeds/pot) and then cultivated in a growth chamber at a temperature of 18° C. (day)/15° C. (night) and at a day length of 12 hours for 28 days. Plants were thinned to 3 plants/pot. On the 28th day after sowing, the plants were treated by foliar spray application with a solution containing the test compound. On the 2nd day after the spray application the plants were subjected to high temperatures for 7 days in a growth chamber 36° C. (day)/32° C. (night) and a day length of 12 hours. After the stress treatment, the plants were cultivated in a growth chamber at a temperature of 18° C. (day)/15° C. (night) and a day length of 12 hours. On the 56th day after seeding, the total fresh weight of the young ears from the 3 plants in each pot was measured (n=8 replicates).
# Wheat seeds (cultivar; Apogee) were sown in soil pots (5 seeds/pot) and then cultivated in a growth chamber at a temperature of 18° C. (day)/15° C. (night) and at a day length of 12 hours for 28 days. The wheat plants on the 28th day after seeding were treated by foliar spray application with a solution containing the Compound 1 at concentrations of 1 ppm to 100 ppm. As an untreated control group, the plants were treated with blank solution without Compound 1. Three seedlings per pot were used for the test. On the 2nd day after the spray application, the plants were treated with high temperature for 7 days in a growth chamber at a temperature of 36° C. (day)/32° C. (night) and a day length of 12 hours. After the stress treatment, the plants were cultivated in a growth chamber at a temperature of 18° C. (day)/15° C. (night) and a day length of 12 hours. On the 56th day after seeding, total fresh weight of young seed heads from 3 plants in each pot were measured for 8 replicates of each treatment.
# [2] = tested on: Rice (cultivar; Nipponbare); assay: Rice growth enhancement by hydroponic treatment under drought stress
# Procedure: Germinated rice seeds (cultivar; Nipponbare) were cultivated in 2-fold diluted Kimura B hydroponic solution in a growth chamber at a temperature of 28° C. (day)/23° C. (night) and a day length of 12 hours for 14 days. Drought stress was provided by withdrawal of the hydroponic solution from the culture tube for 2 days in a growth chamber at a temperature of 28° C. (day)/23° C. (night) and a day length of 12 hours. After the drought treatment, plants were cultivated in 2-fold diluted Hoagland's hydroponic solution in a growth chamber at a temperature of 28° C. (day)/23° C. (night)) and a day length of 12 hours for 14 days. Then the total fresh weight of the shoots of 5 plants was measured for 3 replicates.
# Germinated rice seeds (cultivar; Nipponbare) were cultivated in 2-fold diluted Kimura B hydroponic solution including 1 ppm of the Compound 1 and 0.01% dimethyl sulfoxide in a growth chamber at a temperature of 28° C. (day)/23° C. (night)) and a day length of 12 hours for 14 days. As an untreated control group, the plants were cultivated in the hydroponic solution without Compound 1.
# Drought stress was provided by withdrawal of the hydroponic solution from the culture tube for 2 days in a growth chamber at a temperature of 28° C. (day)/23° C. (night) and a day length of 12 hours. After the drought treatment, the treated plants were cultivated in 2-fold diluted Hoagland's hydroponic solution in a growth chamber at a temperature of 28° C. (day)/23° C. (night) and a day length of 12 hours for 14 days, and then total fresh weight of the shoots of 5 plants was examined for 3 replicates.
# [3] = seed treatment 0.005 grams/100-kg seeds
# [4] = seed treatment 0.05 grams/100-kg seeds
# [5] = seed treatment 0.5 grams/100-kg seeds
compound,measurement,setting,value
"Oc1ccnc(SCc2cccc(F)c2)n1 [Compound 1, S-(3-Fluorobenzyl)-2-thiouracil]","Average fresh shoot weight versus untreated control, in words",[1]; across 0.005 to 0.5 gram per 100 kilogram seeds,larger than that of the untreated control group
same,"Percent (shoot weight, untreated control = 100)",[1]; [3],104%
same,Average weight of the shoots,[1]; [3],4.0 grams/plant
same,"Percent (shoot weight, untreated control = 100)",[1]; [4],133%
same,Average weight of the shoots,[1]; [4],5.1 grams/plant
same,"Percent (shoot weight, untreated control = 100)",[1]; [5],115%
same,Average weight of the shoots,[1]; [5],4.4 grams/plant
same,Shoot Length,mungbean; 1 ppm,5.5 cm
same,Root Length,mungbean; 1 ppm,9.9 cm
same,Percent Change in Primary Root Length of Mungbean,"mungbean; 10 ppm (10 mg/L), benzyl ring substitutions",10.4%
same,Shoot Length,mungbean; 10 ppm,5.2 cm
same,Root Length,mungbean; 10 ppm,10.6 cm
same,Shoot Length,mungbean; 25 ppm,4.7 cm
same,Root Length,mungbean; 25 ppm,9.5 cm
same,Shoot Length,mungbean; 50 ppm,3.9 cm
same,Root Length,mungbean; 50 ppm,5.8 cm
same,change in vivo at 10 ppm,"mungbean; 96 h, 10 ppm (10 mg/L), benzyl ring substitutions, read-out: Percent Change in Primary Root Length of Mungbean",10.4%
same,"Effect on mungbean root (and shoot) growth, in words",mungbean; mungbean pouch assay,only a moderate increase in root growth
same,change in vivo at 10 ppm,tomato,8.3%
same,"Average fresh weight of young seed heads versus untreated controls, in words","Wheat (cultivar; Apogee); 1 ppm to 100 ppm foliar spray, high temperature stress",larger than those of the untreated controls
same,Average fresh weight of young ears,Wheat (cultivar; Apogee); foliar spray 1 ppm,1.71 grams/3 plants
same,Percent (untreated control = 100),"Wheat (cultivar; Apogee); foliar spray 1 ppm, high temperature stress",105%
same,Average fresh weight of young ears,Wheat (cultivar; Apogee); foliar spray 10 ppm,1.70 grams/3 plants
same,Percent (untreated control = 100),"Wheat (cultivar; Apogee); foliar spray 10 ppm, high temperature stress",104%
same,Average fresh weight of young ears,Wheat (cultivar; Apogee); foliar spray 100 ppm,1.87 grams/3 plants
same,Percent (untreated control = 100),"Wheat (cultivar; Apogee); foliar spray 100 ppm, high temperature stress",115%
same,"Percent (shoot weight, untreated control = 100)","[2]; 1 ppm in hydroponic solution, drought stress",112%
same,Average weight of the shoots,"[2]; 1 ppm in hydroponic solution, drought stress 2 days, control 0.43",0.48 gram/5 plants
same,"Average shoot weight versus untreated control, in words","[2]; 1 ppm, drought stress",larger than that of the untreated control

# Reference: patent US9510593B2, “S-benzylthiouracil compounds and methods of enhancing plant root growth” (Valent BioSciences Corporation, priority 2014, dated 2016)
